Measured values taken from patent publication US12528778B2, “Microbiocidal derivatives” (SYNGENTA CROP PROTECTION AG, priority 2019, dated 2026).

Key:
[1] = tested on: Blumeria graminis f. sp. tritici (Erysiphe graminis f. sp. tritici); experiment: Blumeria graminis f. sp. tritici / wheat / leaf disc preventative (powdery mildew on wheat); type: in vivo; conditions: foliar, wheat leaf segments cv. Kanzler, inoculated 1 day after application, assessed 6-8 days after application, vs untreated control
Protocol: Example B3: Blumeria graminis f. sp. tritici (Erysiphe graminis f. so. tritici)/Wheat/Leaf Disc Preventative (Powdery Mildew on Wheat) Wheat leaf segments cv. Kanzler are placed on agar in a multiwell plate (24-well format) and sprayed with the formulated test compound diluted in water. The leaf disks are inoculated by shaking powdery mildew infected plants above the test plates 1 day after application. The inoculated leaf disks are incubated at 20°° C. and 60% rh under a light regime of 24 h darkness followed by 12 h light/12 h darkness in a climate chamber and the activity of a compound is assessed as percent disease control compared to untreated when an appropriate level of disease damage appears on untreated check leaf segments (6-8 days after application). […]-45, and P-50.

[2] = tested on: Magnaporthe grisea (Pyricularia oryzae); experiment: whole plant or invertebrate; type: in vivo; conditions: foliar, read-out: control of Magnaporthe grisea
[3] = tested on: Mycosphaerella graminicola (Septoria tritici); experiment: Mycosphaerella graminicola (Septoria tritici) / liquid culture (Septoria blotch); type: cell-based; conditions: Zymoseptoria tritici, PDB liquid culture, 24° C., growth inhibition determined photometrically 4-5 days after application, vs untreated control
Protocol: Example B12: Mycosphaerella graminicola (Septoria tritici)/Liquid Culture (Septoria Blotch) Conidia of the fungus from cryogenic storage are directly mixed into nutrient broth (PDB potato dextrose broth). After placing a (DMSO) solution of test compound into a microtiter plate (96-well format), the nutrient broth containing the fungal spores is added. The test plates are incubated at 24° C. and the inhibition of growth is determined photometrically 4-5 days after application. […] […]-48, and P-49.

[4] = tested on: Mycosphaerella arachidis (Cercospora arachidicola); experiment: Mycosphaerella arachidis (Cercospora arachidicola) / liquid culture (early leaf spot); type: cell-based; conditions: PDB liquid culture, 24° C., growth inhibition determined photometrically 4-5 days after application, vs untreated control
Protocol: Example B6: Mycosphaerella arachidis (Cercospora arachidicola)/Liquid Culture (Early Leaf Spot) Conidia of the fungus from cryogenic storage are directly mixed into nutrient broth (PDB potato dextrose broth). After placing a (DMSO) solution of test compound into a microtiter plate (96-well format), the nutrient broth containing the fungal spores is added. The test plates are incubated at 24° C. and the inhibition of growth is determined photometrically 4-5 days after application. […] […]-44, and P-48.

[5] = tested on: Glomerella lagenarium (Colletotrichum lagenarium); experiment: Glomerella lagenarium (Colletotrichum lagenarium) / liquid culture (anthracnose); type: cell-based; conditions: Colletotrichum orbiculare, PDB liquid culture, 24° C., growth inhibition measured photometrically 3-4 days after application, vs untreated control
Protocol: Example B2: Glomerella lagenarium (Colletotrichum lagenarium)/Liquid Culture (Anthracnose) Conidia of the fungus from cryogenic storage are directly mixed into nutrient broth (PDB potato dextrose broth). After placing a (DMSO) solution of test compound into a microtiter plate (96-well format), the nutrient broth containing the fungal spores is added. The test plates are incubated at 24° C. and the inhibition of growth is measured photometrically 3-4 days after application. […] […]-49, and P-50.

[6] = tested on: Monographella nivalis (Microdochium nivale); experiment: Monographella nivalis (Microdochium nivale) / liquid culture (foot rot cereals); type: cell-based; conditions: PDB liquid culture, 24° C., growth inhibition determined photometrically 4-5 days after application, vs untreated control
Protocol: Example B5: Monographella nivalis (Microdochium nivale)/Liquid Culture (Foot Rot Cereals) Conidia of the fungus from cryogenic storage are directly mixed into nutrient broth (PDB potato dextrose broth). After placing a (DMSO) solution of test compound into a microtiter plate (96-well format), the nutrient broth containing the fungal spores is added. The test plates are incubated at 24° C. and the inhibition of growth is determined photometrically 4-5 days after application. […] […]-49, and P-50.

Alternaria solani = Alternaria solani / tomato / leaf disc (early blight); type: in vivo; conditions: foliar, tomato leaf disks cv. Baby, inoculated 2 days after application, assessed 5-7 days after application, vs untreated control
Protocol: Example B1: Alternaria solani/Tomato/Leaf Disc (Early Blight) Tomato leaf disks cv. Baby are placed on agar in multiwell plates (24-well format) and sprayed with the formulated test compound diluted in water. The leaf disks are inoculated with a spore suspension of the fungus 2 days after application. The inoculated leaf disks are incubated at 23° C./21° C. […] […]-43, and P-44.

[7] = tested on: Puccinia recondita f. sp. tritici; experiment: Puccinia recondita f. sp. tritici / wheat / leaf disc preventative (brown rust); type: in vivo; conditions: foliar, wheat leaf segments cv. Kanzler, inoculated 1 day after application, assessed 7-9 days after application, vs untreated control
Protocol: Example B8: Puccinia recondita f. sp. tritici/Wheat/Leaf Disc Preventative (Brown rust) Wheat leaf segments cv. Kanzler are placed on agar in multiwell plates (24-well format) and sprayed with the formulated test compound diluted in water. The leaf disks are inoculated with a spore suspension of the fungus 1 day after application. The inoculated leaf segments are incubated at 19° C. and 75% rh under a light regime of 12 h light/12 h darkness in a climate cabinet and the activity of a compound is assessed as percent disease control compared to untreated when an appropriate level of disease damage appears in untreated check leaf segments (7-9 days after application).

COc1ncc(Nc2cc(F)cc(F)c2)nc1C(=O)NCc1ccc(Oc2ccccc2)cc1 [Compound P-30]
≥ 80%: pest or weed control at 200 ppm [1] | pest or weed control at 200 ppm [2] | inhibition of growth at 20 ppm [3] | inhibition of growth at 20 ppm [4] | inhibition of growth at 20 ppm [5] | inhibition of growth at 20 ppm [6] | pest or weed control at 200 ppm (Alternaria solani)

COc1ncc(NCC2CC2)nc1C(=O)NC1CCC1(C)C (centres unmarked) [Compound P-9, 6-(cyclopropylmethylamino)-N-(2,2-dimethylcyclobutyl)-3-methoxy-pyrazine-2-carboxamide]
≥ 80%: pest or weed control at 200 ppm [1] | inhibition of growth at 20 ppm [3] | inhibition of growth at 20 ppm [4] | pest or weed control at 200 ppm [7] | inhibition of growth at 20 ppm [5] | inhibition of growth at 20 ppm [6] | pest or weed control at 200 ppm (Alternaria solani)

COc1ncc(Nc2cnsc2)nc1C(=O)NCc1ccc(Oc2ccccc2)cc1 [Compound P-13, 6-(isothiazol-4-ylamino)-3-methoxy-N-[(4-phenoxyphenyl)methyl] pyrazine-2-carboxamide]
≥ 80%: pest or weed control at 200 ppm [2] | inhibition of growth at 20 ppm [3] | inhibition of growth at 20 ppm [4] | inhibition of growth at 20 ppm [5] | inhibition of growth at 20 ppm [6] | pest or weed control at 200 ppm (Alternaria solani)

COc1ncc(Nc2cc(F)cc(F)c2)nc1C(=O)NC1C2CCOC2C1(C)C (centres unmarked) [Compound P-16, 6-(3,5-difluoroanilino)-N-(7,7-dimethyl-2-oxabicyclo[3.2.0]heptan-6-yl)-3-methoxy-pyrazine-2-carboxamide]
≥ 80%: pest or weed control at 200 ppm [1] | pest or weed control at 200 ppm [2] | inhibition of growth at 20 ppm [3] | inhibition of growth at 20 ppm [4] | inhibition of growth at 20 ppm [5] | inhibition of growth at 20 ppm [6] | pest or weed control at 200 ppm (Alternaria solani)

COc1ncc(Nc2cc(F)nc(F)c2)nc1C(=O)NCC1(C)CCOC2(CCC2)C1 (centres unmarked) [Compound P-34]
≥ 80%: pest or weed control at 200 ppm [2] | pest or weed control at 200 ppm [7] | inhibition of growth at 20 ppm [5]

COc1ncc(Nc2cc(F)cc(F)c2)nc1C(=O)NC1(C)CC1 [Compound P-37, 6-(3,5-difluoroanilino)-3-methoxy-N-(1-methylcyclopropyl) pyrazine-2-carboxamide]
≥ 80%: pest or weed control at 200 ppm [1] | pest or weed control at 200 ppm [2] | inhibition of growth at 20 ppm [3] | pest or weed control at 200 ppm [7] | inhibition of growth at 20 ppm [5] | inhibition of growth at 20 ppm [6] | pest or weed control at 200 ppm (Alternaria solani)

COc1ncc(Nc2cc(F)cc(F)c2)nc1C(=O)NCc1cccc2c1OC(F)(F)O2 [Compound P-29, 6-(3,5-difluoroanilino)-N-[(2,2-difluoro-1.3-benzodioxol-4-yl)methyl]-3-methoxy-pyrazine-2-carboxamide]
≥ 80%: pest or weed control at 200 ppm [2] | inhibition of growth at 20 ppm [3] | inhibition of growth at 20 ppm [4] | pest or weed control at 200 ppm [7] | inhibition of growth at 20 ppm [5] | inhibition of growth at 20 ppm [6]

COc1ncc(Nc2cc(F)cc(F)c2)nc1C(=O)NC(C)CCCC(C)C (centres unmarked) [Compound P-40, 6-(3,5-difluoroanilino)-N-(1,5-dimethylhexyl)-3-methoxy-pyrazine-2-carboxamide]
≥ 80%: pest or weed control at 200 ppm [1] | pest or weed control at 200 ppm [2] | inhibition of growth at 20 ppm [3] | inhibition of growth at 20 ppm [4] | pest or weed control at 200 ppm [7] | inhibition of growth at 20 ppm [5] | inhibition of growth at 20 ppm [6]
